Data as given in US20090092624A1, “Antiinfective Flavononol Compounds and Methods of Use Thereof” (priority 2007, published 2009).
Where “and” joins values, the source holds several entries; their conditions need not be identical. Equal values may be shown once. Entries after “also recorded” stand apart in the source; their conditions may differ.

Legend:
[1] = test system: Human influenza A virus subtype /PR/8/34 H1N1; assay: microbe, parasite or virus in culture; format: cell-based, Influenza A/PR/8/34 (H1N1); conditions: MDCK
H1N1 virions = format: binding, Influenza A virus (H1N1)
[2] = test system: Candida albicans (ATCC# 96133); assay: microbe, parasite or virus in culture; conditions: ATCC96133, read-out: IC50 value, adhesion inhibition
[3] = test system: Escherichea coli (ATCC# 53499); assay: microbe, parasite or virus in culture; conditions: Escherichia coli, ATCC53499, read-out: IC50 value, adhesion inhibition

| Structure (SMILES) | IC50 [1] | direct binding to H1N1 virus surface (H1N1 virions) | IC50 [2] [µM] | IC50 [3] [µM] |
| --- | --- | --- | --- | --- |
| NC12CC3CC(CC(C3)C1)C2 [Amantadine] | 4.7 µg/mL and 27 µM |  |  |  |
| CCOC(=O)C1=C[C@@H](OC(CC)CC)[C@H](NC(C)=O)[C@@H](N)C1 [Oseltamivir] | 0.1 µg/mL and 320 nM |  |  |  |
| O=C1c2c(O)cc(O)cc2OC(c2cc(O)c(O)c(O)c2)C1O (stereo not drawn) [Tristenonol aglycone, 3,5,7-Trihydroxy-2-(3,4,5-trihydroxyphenyl)-chroman-4-one] | 2.8 µg/mL and 5.4 µM | does bind directly to the virus surface; also recorded: bound to the H1N1 virus surface | 89.1 | 60 |
